Source: patent US6815439B2, “Substituted aza-oxindole derivatives” (SmithKline Beecham Corporation, priority 1999, dated 2004)

Tests used:
Assay type in all cases: biochemical
VEGFR-2 = biological target: T1, VEGFR-2 (Homo sapiens, UniProt P35968); test: VEGFR-2 kinase assay; conditions: kinase inhibition, Table 3; read-out: VEGFR2 (IC50)
T1 construct: The kinase domain of the enzyme was purified to homogeneity from a baculovirus expression system; made in house
Procedure: The peptide substrate used in the VEGFR-2 assay was biotin-aminohexyl-[…]-NH2. The kinase domain of the enzyme was purified to homogeneity from a baculovirus expression system. The enzyme was preactivated on ice for 15 min in the presence of 100 μM ATP and 20 mM MgCl2, and stored at −80° C. until needed for assay. The activated enzyme was diluted to 0.4 nM into a 60 μl reaction containing 100 mM HEPES, pH 7.5, 5 μM ATP, 10 mM MgCl2, 5 μM peptide, 0.1 mM DTT, 0.05 mg/ml BSA, and an inhibitor at varying concentrations. The controls were reactions in the presence (negative controls) or absence (positive controls) of 50 mM EDTA. Reactions were incubated for 30 min at room temperature, and then quenched by the addition of EDTA to 60 mM in 210 μl. The quenched samples (190 μl) were transferred to a neutravidin-coated plate (Pierce) and incubated at room temperature for 40 min to allow biotinylated peptide to bind to the neutravidin. The unbound components of the reaction were removed by washing with a plate washer, then 200 μl HRP-PY20 anti-phosphotyrosine antibody conjugate was added to each well. After incubation for 40 min, the plate was washed to remove any unbound anitbody. A HRP substrate, K-blue (Neogen) was added and the reaction was quenched with Red Stop (Neogen) after 20 min. The absorbance of the wells was read at A650 in a plate reader. IC50 values were obtained by fitting raw data to A650=VMAX*(1−[I]/IC50+[I])))+b, where b is background.

CDK2 = CDK2 (Homo sapiens, UniProt P24941); test: CDK2 substrate phosphorylation assay; conditions: kinase inhibition, Table 3
Procedure: Cyclin dependent protein kinase assays utilized the peptides Biotin-aminohexyl-[…] and Biotin-aminohexyl-[…]-NH2 as phosphoryl group acceptors. CDK2 was expressed utilizing a baculovirus expression system and was partially purified to comprise 20-80% of total protein, with no detectable competing reactions present. Typically, assays were performed by incubating enzyme (0.2-10 nM), with and without inhibitor, one of the two peptide substrates ([…]), [γ-^32P]ATP ([…]), and 10-20 mM Mg^2+ for periods of time generally within the range 10-120 min. Reactions were terminated with 0.2-2 volumes of either 20% acetic acid or 50-100 mM EDTA buffered to pH 7 (substrate consumption <20%). The buffer employed in enzyme assays was either 30 mM HEPES 7.4 containing 0.15 M NaCl and 5% DMSO, the buffer 50 mM MOPS 7.0 containing 0.15 M NaCl and 5% DMSO, or the buffer 100 mM HEPES pH 7.5 containing 0.1 mg/mL BSA and 5% DMSO. Inhibitors were diluted in 100% DMSO prior to addition into the assay. Detection of peptide phosphorylation was accomplished by scintillation counting following either collection of peptide onto phosphocellulose filters (for reactions stopped with acetic acid), collection of peptide in wells of 96 well plates coated with Streptavidin (Pierce) (reactions were stopped with EDTA), or addition of Avidin coated Scintillant impregnated beads (Scintillation Proximity Assays from Amersham; reactions were stopped with EDTA).

c-fms = biological target: T2, c-fms (Homo sapiens, UniProt P07333); test: c-fms protein kinase assay; conditions: kinase inhibition, Table 3
T2 construct: The c-fms intracellular domain was expressed from a baculovirus expression system; GST (N); made in house
T2 sequence (P07333 539-972 limits assumed): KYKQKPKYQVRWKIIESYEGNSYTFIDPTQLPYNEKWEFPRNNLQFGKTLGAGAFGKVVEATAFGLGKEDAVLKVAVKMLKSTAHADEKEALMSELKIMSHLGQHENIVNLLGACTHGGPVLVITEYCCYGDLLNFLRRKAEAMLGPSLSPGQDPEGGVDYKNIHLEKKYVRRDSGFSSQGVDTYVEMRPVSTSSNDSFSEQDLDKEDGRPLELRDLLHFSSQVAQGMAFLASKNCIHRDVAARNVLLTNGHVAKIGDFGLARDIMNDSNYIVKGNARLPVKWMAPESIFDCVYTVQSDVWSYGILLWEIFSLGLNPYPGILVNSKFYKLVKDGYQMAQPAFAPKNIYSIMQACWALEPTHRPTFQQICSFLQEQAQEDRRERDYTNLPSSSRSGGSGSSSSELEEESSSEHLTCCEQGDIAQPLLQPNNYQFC
Procedure: c-fms protein kinase assays utilized the peptide substrate, biotin-[…]-NH2 as the phosphoryl group acceptor. The c-fms intracellular domain was expressed from a baculovirus expression system, as an amino-terminal GST fusion protein, and purified to homogeneity using Glutathione agarose from Sigma Chemical Co. Maximum activation of the enzyme was achieved by preactivation at room temperature for 120 min in the presence of 100 μM ATP and 15 mM MgCl2, This enzyme stock was diluted to 150 nM prior to using in the assay. Typically assays were performed in white, opaque, 96-well plates in a 45 ul assay volume including 15 ul 6% DMSO, with or without compounds, 15 ul of the preactivated, diluted enzyme, and 15 ul of a substrate mixture. Reactions contained 50 mM HEPES, pH 7.5, 1.7 μM ATP, 15 mM MgCl2, 3 μM peptide, 2.5 mM DTT, 50 mM NaCl and 0.15 uCi/assay [□□^32P]ATP. The controls were reactions in the presence (negative controls) or absence (positive controls) of 50 mM EDTA. Reactions were allowed to proceed for 90 min at room temperature. The reaction products were quantified using Scintillation Proximity technolgy. The reactions were quenched by the addition of 200 ul of a solution containing 0.3 mg streptavidin SPA beads from Amersham, 50 mM EDTA, 0.1% TX-100, 50 uM ATP, in PBS, pH7.2 (phosphate buffered solution). Plates were sealed and counted in a Packard Topcount scintillation counter. IC50 values were obtained by fitting raw data to the equation y=Vmax*(1−(x/(k+x))).

T1 sequence (P35968 834-1162 limits assumed, species assumed): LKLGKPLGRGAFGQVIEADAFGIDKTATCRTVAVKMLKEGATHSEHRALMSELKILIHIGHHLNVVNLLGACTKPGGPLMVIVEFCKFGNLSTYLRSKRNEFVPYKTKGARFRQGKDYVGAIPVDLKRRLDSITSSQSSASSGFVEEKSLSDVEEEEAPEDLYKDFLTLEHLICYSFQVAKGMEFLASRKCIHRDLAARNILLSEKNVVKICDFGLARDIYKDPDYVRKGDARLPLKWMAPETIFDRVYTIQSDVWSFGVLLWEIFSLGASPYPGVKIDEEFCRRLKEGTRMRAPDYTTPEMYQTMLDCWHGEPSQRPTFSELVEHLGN

Row | SMILES | IC50 (VEGFR-2) | IC50 (CDK2) | IC50 (c-fms)
1 | CCOC(=O)c1cnc2c(c1)C(=CNc1ccc(S(N)(=O)=O)cc1)C(=O)N2 [Example 23, Ethyl 3-{[4-(aminosulfonyl)anilino]methylidene}-2-oxo-1,2-dihydro-3H-pyrrolo[2,3-b]pyridine-5-carboxylate] | 100 to 1000 nM | 10 to 100 nM | 1000 to 10000 nM
2 | CCOC(=O)c1cnc2c(c1)C(=CNc1ccc3cn[nH]c3c1)C(=O)N2 [Example 24, Ethyl 3-[(1H-indazol-6-ylamino)methylidene]-2-oxo-1,2-dihydro-3H-pyrrolo[2,3-b]pyridine-5-carboxylate] | 10 to 100 nM | 10 to 100 nM | 1000 to 10000 nM
